Test results: PMC12830042, “Investigating the impact of charge and hydrophilicity on peptide-mucin interactions using a simple mucin model” (AAPS open, 2025)

Tested on: Mucin type II from porcine stomach
Assay: Peptide diffusion across a mono-component mucin layer (Transwell donor to acceptor chamber)
Assay type: in vitro ADME
Conditions: for time window in which acceptor concentration plateaued / leveled off: donor 266 and 133 μg/mL (both concentrations); for time window in which acceptor concentration plateaued / leveled off / time window in which acceptor concentration plateaued: mucin layer, pH 6.8, HPLC; for maximum concentration in the acceptor chamber: ~2.5% (w/v) Type II porcine mucin on Transwell, phosphate buffer pH 6.8, 37°C, over 6 h, HPLC-UV 214 nm
Experimental: Around 2.5% (w/v) of Type II porcine mucin was added to the donor side of the Transwell™ plate along with 300–1000 μL of 6.8 pH phosphate buffer. The mixture was shaken at 37°C for 45–60 min until the proper suspension was attained. Then, 1–2 mL of phosphate buffer at 6.8 pH was added to the acceptor side of the Transwell™ plate.
Fig. 1 A schematic diagram of the diffusion chamber to study peptide diffusion through a mucin layer. The well consists of donor and acceptor chambers separated by a mucin layer. The peptide was added to the donor chamber, and the diffusion of the peptide was monitored by its appearance in the acceptor chamber. The peptide in the acceptor chamber was sampled as a function of time, and the peptide concentration was determined by fluorescence spectroscopy, HPLC, or mass spectrometry
Initially, FITC-ADT10 and FITC-HAV10 peptides were used to test the mucin model in phosphate buffer at pH 6.8. Different concentrations of peptide in phosphate buffer at pH 6.8 were added to the donor chamber; the acceptor chamber contained a phosphate buffer at pH 6.8 in the Transwell™. At predetermined time points, 100 μL aliquots were taken from the acceptor chamber, transferred into 96-well plates, and replaced with pre-heated phosphate buffer pH 6.8. The aliquots were then analyzed by fluorescence spectroscopy plate reader at […].
The diffusion of each unlabeled peptide from the donor-to-acceptor chambers was analyzed by Agilent® 1200 HPLC equipped with a Zorbax C18 column with 3.5 μm particle size and dimensions of 4.6 × 50 mm. The column temperature was held at 30°C during the chromatographic run. Mobile phase A was 0.1% trifluoroacetic acid in Milli-Q water, and mobile phase B was 0.085% trifluoroacetic acid in acetonitrile. The detector was a UV–Vis detector monitoring at 214 nm wavelengths. Calibration curves were prepared in phosphate buffer pH 6.8 in concentrations ranging from 1 to 266 μg/mL.
Student t-tests were used to analyze the difference between the percentage diffused of FITC-HAV10 and FITC-ADT10, octreotide and octreotide A5, and lanreotide and lanreotide A5. The difference in diffusion percentages of ADT peptides was analyzed using ANOVA with Student − Newman − Keul post hoc comparison of the means and Dunnett’s Test comparing DTPPD, DTPPT, and DTPPVK with ADTC5. Statistical significance was set at p < 0.05 unless otherwise stated.

Row | Compound | time window in which acceptor concentration plateaued / leveled off [h] | time window in which acceptor concentration plateaued (donor 133 μg/mL) [h] | maximum concentration in the acceptor chamber (donor 133 μg/mL) [mg/mL] | time window in which acceptor concentration plateaued (donor 266 μg/mL) [h] | maximum concentration in the acceptor chamber (donor 266 μg/mL) [mg/mL]
1 | Cyclo(1,7)Ac-CDTPPVC-NH2 (disulfide) [ADTC5, cyclic ADT cadherin peptide that modulates intercellular junctions] | 2 to 6 | – | – | – | –
2 | C[C@@H](O)[C@@H]1NC(=O)[C@H](CCCCN)NC(=O)[C@@H](Cc2c[nH]c3ccccc23)NC(=O)[C@H](Cc2ccccc2)NC(=O)[C@@H](NC(=O)[C@H](N)Cc2ccccc2)CSSC[C@@H](C(=O)N[C@H](CO)[C@@H](C)O)NC1=O [Octreotide] | – | 4 to 6 | 0.00593 | 2 to 6 | 0.0116
3 | CC(C)[C@@H]1NC(=O)[C@H](CCCCN)NC(=O)[C@@H](Cc2c[nH]c3ccccc23)NC(=O)[C@H](Cc2ccc(O)cc2)NC(=O)[C@@H](NC(=O)[C@H](N)Cc2ccc3ccccc3c2)CSSC[C@@H](C(=O)N[C@H](C(N)=O)[C@@H](C)O)NC1=O [Lanreotide] | 4 to 6 | – | – | – | –
